Reference: patent US20230339983A1, “FLUORESCENT COMPOUNDS SPECIFIC FOR PLURIPOTENT STEM CELLS AND REPROGRAMMING-READY CELLS AND METHODS OF USING THE SAME” (Agency for Science, Technology and Research, priority 2018, published 2023)

Legend:
Format in all cases: cell-based, human
[1] = test system: reprogramming DPSCs at 7 dpn; assay: Fluorescent subcellular organelle co-staining; settings: confocal; ER, Golgi, lysosome, mitochondria marker dyes
Text: Reprogrammed DPSCs at 7 dpn on MG were stained for cell organelle marker dyes (Molecular Probes) for endoplasmic reticulum (ER) (ER-Tracker™ Green (BODIPY® FL Glibenclamide)), Golgi complex (BODIPY® FL C5-Ceramide (N-(4,4-Difluoro-5,7-Dimethyl-4-Bora-3a,4a-Diaza-s-Indacene-3-Pentanoyl)Sphingosine)), lysosome (LysoTracker® Green DND-26), or mitochondria (MitoTracker® Green FM). Confocal images were taken to visualize the staining.
To determine the subcellular organelle localization of BDL-E5 in reprogramming cells, 7 dpn DPSCs on MG were stained for BDL-E5 and organelle marker dyes for endoplasmic reticulum (ER), Golgi complex, lysosome, or mitochondria.

[2] = test system: reprogrammed SC-ASCs and VS-ASCs; assay: FACS of reprogrammed ASCs stained with BDL-E5 at 14 dpn and iPS colony count; settings: for iPS colonies from BDL-E5+ versus BDL-E5- sorted cells: seeded on MEF; for percentage of cells staining negatively / percentage of cells staining positively: FACS at 14 dpn
Text: WAT was isolated from subcutaneous (abdominal region) and visceral (omental region) depots from 2 human volunteers (S15-S16, undergoing bariatric surgery, with approval by the National Healthcare Group Domain Specific Review Board at National Healthcare Group, Singapore) as described previously (Ong, et al. (2014). Stem Cell Reports 2, 171-179; Takeda, et al. (2016). Diabetes 65, 1164-1178). […]. ASCs were isolated from WAT and cultured, as previously described (Sugii, et al. (2011). Nature Protoc 6, 346-358). Cells only up to passage 5 were used for experiments. MSC cell surface markers and multipotency of ASCs used herein were confirmed by flow cytometry and differentiation assays, respectively (Ong, et al. (2014). Stem Cell Reports 2, 171-179).
Reprogrammed ASCs and DPSCs, AiPS and DiPS on D7 or D14 dpn were stained with BDL-E5 for 1 hour and then harvested using TrypLE and resuspended in 1×PBS. The cells were then subjected to FACS in the MoFlo XDP Cell Sorter (Beckman Coulter) under sterile conditions.
Next, the inventors investigated whether the probe was useful in assisting reprogramming selection of obese patient-derived ASCs from subcutaneous (SC) and visceral (VS) fat depots. […] FIG. 10A (iii) and (iv) represents the unstained ASCs. BDL-E5^+ and BDL-E5^− cells sorted using FACS were seeded onto MEF-coated plates.
To investigate the quality of the BDL-E5^+ generated iPS cells, the iPS colonies were passaged for several generations. As shown in FIG. 10B(i), ASC-derived BDL-E5^+ colonies remained well self-renewed and TRA-1-60 positive for subsequent passages.

[3] = test system: reprogramming (RP) versus non-reprogramming (non-RP) DPSCs (DPSC1); assay: Signal-to-noise comparison of reprogramming versus non-reprogramming cells
Procedure: FIG. 14: (A) Graph representing signal-to-noise ratios (arbitrary fluorescence units) on comparing reprogramming (RP) versus non-reprogramming (non-RP) DPSCs (DPSC1) stained with either CDy1 or BDL-E5. The fluorescence intensity was measured using ImageJ software. 100 cells per field (10×), 10 fields per well, 3 wells per probe were measured. […] denotes significance between RP and non-RP cells. (B) Proliferation assay of DPSC1 incubated with BDL-E5 (500 nM) for 2 to 5 days; represented as number of viable cells per cm^2 (n=3). (C) Proliferation assay of reprogramming DPSC1, 48 h after transfection with Scr CREB1, CREB1 OE or siCREB1; represented as number of viable cells per cm^2 (n=3).

reprogramming DPSCs = assay: BDL-E5 live staining time course of episomally reprogrammed DPSCs on MG
Procedure: Episomal plasmids developed by Yamanaka's lab were obtained from Addgene: pCXLEhOct3/4-shp53-F (Addgene #27077), pCXLE-hSK (Addgene #27078), pCXLE-hUL (Addgene #27080) and pCXLE-EGFP (Addgene #27082) (Okita, et al. (2011). Nat Methods 8, 409-412). 1×10^6 cells were suspended together with 1 μg of each episomal vector in Nucleofector solution supplied in the Nucleofector Kit R (Lonza). Then the cells were transfected with the Program FF-113 on a Nucleofector 2b Device. The transfected cells were then cultured in ASC or DPSC medium (MSC medium) supplemented with 0.5 mM sodium butyrate, with daily media change. On Day 7 dpn, 1×10^5 viable cells were seeded over MEF feeders (GlobalStem) into one well of a 6-well plate for feeder-based iPS derivation; 2×10^5 viable cells were seeded for feeder-free iPS derivation into one well of a 6-well plate pre-coated with Matrigel (Corning). The next day, MSC medium was changed to feeder-based hES medium (DMEM/F12 supplemented with 20% knock out serum replacement, 1% GlutaMAX, 1% NEAA, Pen/Strep, 0.1 mM p-mercaptoethanol and 10 ng/ml b-FGF) or to feeder-free mTeSR1 (StemCell Technologies), supplemented with sodium butyrate. At 12 dpn, supplementation of sodium butyrate was stopped, and conditioned further with SMC4 cocktail (consisting of small molecules: PD0325901, CHIR99021, Thiazovivin, and SB431542 (FOCUS Biomolecules)) in hES medium/mTeSR1. This media supplement was continued until initial colony formation began.
Reprogrammed cells were immune-stained with fluorescent live cell stain TRA-1-60 (R&D Systems, GloLIVE NL557) as per manufacturer's instructions. After incubating with the live staining antibodies for 30 min and Hoechst 33342 for 10 min, cells were washed 3 times with PBS and images with the Cy5 and DAPI channels, respectively, were immediately captured.
Further experiments were carried out using BDL-E5. To determine whether BDL-E5 identifies the early stages of pluripotency, ASCs and DPSCs were reprogrammed using nucleofection of episomal vectors, and seeded onto MG-coated plates (feeder-free, viral-free reprogramming method). […]

COc1cc(F)c(/C=C/c2cc(C)c3n2[B-](F)(F)[N+]2=C(CCC(=O)NCCN(C)C)C=CC2=C3)cc1OC [BDL-E5]
subcellular organelle localization [1]: co-localize significantly with Golgi complex staining
iPS colonies from BDL-E5+ versus BDL-E5- sorted cells ([2]; SC-ASCs sorted at 14 dpn): gave rise to more colonies than the BDL-E5^− population
percentage of cells staining negatively ([2]; SC-ASCs): ~11%
percentage of cells staining positively ([2]; SC-ASCs): ~33%
iPS colonies from BDL-E5+ versus BDL-E5- sorted cells ([2]; VS-ASCs sorted at 14 dpn): at least some BDL-E5^+ VS-ASCs gave rise to iPS colonies
percentage of cells staining negatively ([2]; VS-ASCs): ~24%
percentage of cells staining positively ([2]; VS-ASCs): ~19%
signal toward reprogramming cells and background staining against non-reprogramming cells [3]: low non-specific staining against non-reprogramming cells
intensity of fluorescence of staining at 7, 14, 21, 28 dpn (reprogramming DPSCs; iPS colonies formed from DPSCs): increased with increasing time
fate of stained cells tracked in the same field of view until colony formation (reprogramming DPSCs; reprogrammed DPSCs, staining every 48 h, 10-24 dpn): only cells staining positive for BDL-E5 formed iPS colonies
time at which positive cells/colonies were found (reprogramming DPSCs; reprogramming DPSCs, MG-coated plates, episomal feeder-free): 7 dpn
